Reference: ChEMBL document CHEMBL1143254, “Structure-based design of novel 2-amino-6-phenyl-pyrimido[5',4':5,6]pyrimido[1,2-a]benzimidazol-5(6H)-ones as potent and orally active inhibitors of lymphocyte specific kinase (Lck): synthesis, SAR, and in vivo anti-inflammatory activity” (J Med Chem, 2008)
Values after ≈ are worked out from the molar mass of the structure shown.

Biological target: Proto-oncogene tyrosine-protein kinase Src (Homo sapiens, UniProt P12931)
Assay: Inhibition of Src by HTRF assay

Sequence of Proto-oncogene tyrosine-protein kinase Src (P12931 2-536 limits assumed): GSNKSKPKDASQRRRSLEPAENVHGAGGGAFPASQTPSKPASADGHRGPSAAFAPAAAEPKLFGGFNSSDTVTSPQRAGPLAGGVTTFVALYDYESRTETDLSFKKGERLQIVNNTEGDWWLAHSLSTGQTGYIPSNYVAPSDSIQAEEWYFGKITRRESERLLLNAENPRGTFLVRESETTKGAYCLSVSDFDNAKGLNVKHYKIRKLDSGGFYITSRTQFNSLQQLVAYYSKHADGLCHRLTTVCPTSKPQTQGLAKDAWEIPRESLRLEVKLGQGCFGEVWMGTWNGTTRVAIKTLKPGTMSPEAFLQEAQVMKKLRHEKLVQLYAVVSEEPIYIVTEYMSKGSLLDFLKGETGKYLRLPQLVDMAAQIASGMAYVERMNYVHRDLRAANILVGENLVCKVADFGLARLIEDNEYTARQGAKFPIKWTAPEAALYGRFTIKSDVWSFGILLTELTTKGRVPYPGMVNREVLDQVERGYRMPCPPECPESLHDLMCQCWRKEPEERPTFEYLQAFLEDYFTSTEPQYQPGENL

Row | Structure (SMILES) | IC50
1 | Cc1cccc(C)c1-n1c(=O)c2cnc(Nc3ccc(OCCCN(C)C)cc3)nc2n2c3ccccc3nc12 | 360 nM
2 | Cc1ccc(-n2c(=O)c3cnc(Nc4ccc(N5CCN(C)CC5)cc4)nc3n3c4ccccc4nc23)cc1 | 1700 nM
3 | COc1cc(Nc2ncc3c(=O)n(-c4c(C)cccc4C)c4nc5ccccc5n4c3n2)ccc1N1CCN(C)CC1 | 100 nM

Now from value to compound:

Row | IC50 | Structure (SMILES)
4 | 210 nM | COc1cc(Nc2ncc3c(=O)n(-c4c(C)cccc4C)c4nc5ccccc5n4c3n2)cc(OC)c1OC
5 | 180 nM | COc1cc(Nc2ncc3c(=O)n(-c4c(C)cccc4C)c4nc5ccccc5n4c3n2)ccc1OCCCN1CCN(C)CC1

Biological target: Mitogen-activated protein kinase 14 (Homo sapiens, UniProt Q16539)
Sequence (Q16539 whole entry): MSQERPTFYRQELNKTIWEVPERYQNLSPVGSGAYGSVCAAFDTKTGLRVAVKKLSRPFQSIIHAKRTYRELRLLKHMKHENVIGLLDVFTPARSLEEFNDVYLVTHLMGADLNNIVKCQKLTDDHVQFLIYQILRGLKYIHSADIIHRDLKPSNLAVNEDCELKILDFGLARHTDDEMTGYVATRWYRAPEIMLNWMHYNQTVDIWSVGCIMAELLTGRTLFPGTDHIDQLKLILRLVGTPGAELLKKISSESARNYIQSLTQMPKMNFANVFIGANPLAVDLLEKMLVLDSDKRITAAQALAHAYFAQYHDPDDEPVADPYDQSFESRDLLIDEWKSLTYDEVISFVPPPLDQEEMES
Assay: Inhibition of p38-alpha by HTRF assay

Row | Structure (SMILES) | IC50
6 | Cc1cccc(C)c1-n1c(=O)c2cnc(Nc3ccc(OCCCN(C)C)cc3)nc2n2c3ccccc3nc12 | > 10000 nM
7 | COc1cc(Nc2ncc3c(=O)n(-c4c(C)cccc4C)c4nc5ccccc5n4c3n2)ccc1N1CCN(C)CC1 | 7500 nM

Next, values leading:

Row | IC50 | Structure (SMILES)
8 | > 10000 nM | COc1cc(Nc2ncc3c(=O)n(-c4c(C)cccc4C)c4nc5ccccc5n4c3n2)cc(OC)c1OC
9 | > 10000 nM | COc1cc(Nc2ncc3c(=O)n(-c4c(C)cccc4C)c4nc5ccccc5n4c3n2)ccc1OCCCN1CCN(C)CC1

Biological target: Vascular endothelial growth factor receptor 2 (Homo sapiens, UniProt P35968)
Sequence (P35968 whole entry): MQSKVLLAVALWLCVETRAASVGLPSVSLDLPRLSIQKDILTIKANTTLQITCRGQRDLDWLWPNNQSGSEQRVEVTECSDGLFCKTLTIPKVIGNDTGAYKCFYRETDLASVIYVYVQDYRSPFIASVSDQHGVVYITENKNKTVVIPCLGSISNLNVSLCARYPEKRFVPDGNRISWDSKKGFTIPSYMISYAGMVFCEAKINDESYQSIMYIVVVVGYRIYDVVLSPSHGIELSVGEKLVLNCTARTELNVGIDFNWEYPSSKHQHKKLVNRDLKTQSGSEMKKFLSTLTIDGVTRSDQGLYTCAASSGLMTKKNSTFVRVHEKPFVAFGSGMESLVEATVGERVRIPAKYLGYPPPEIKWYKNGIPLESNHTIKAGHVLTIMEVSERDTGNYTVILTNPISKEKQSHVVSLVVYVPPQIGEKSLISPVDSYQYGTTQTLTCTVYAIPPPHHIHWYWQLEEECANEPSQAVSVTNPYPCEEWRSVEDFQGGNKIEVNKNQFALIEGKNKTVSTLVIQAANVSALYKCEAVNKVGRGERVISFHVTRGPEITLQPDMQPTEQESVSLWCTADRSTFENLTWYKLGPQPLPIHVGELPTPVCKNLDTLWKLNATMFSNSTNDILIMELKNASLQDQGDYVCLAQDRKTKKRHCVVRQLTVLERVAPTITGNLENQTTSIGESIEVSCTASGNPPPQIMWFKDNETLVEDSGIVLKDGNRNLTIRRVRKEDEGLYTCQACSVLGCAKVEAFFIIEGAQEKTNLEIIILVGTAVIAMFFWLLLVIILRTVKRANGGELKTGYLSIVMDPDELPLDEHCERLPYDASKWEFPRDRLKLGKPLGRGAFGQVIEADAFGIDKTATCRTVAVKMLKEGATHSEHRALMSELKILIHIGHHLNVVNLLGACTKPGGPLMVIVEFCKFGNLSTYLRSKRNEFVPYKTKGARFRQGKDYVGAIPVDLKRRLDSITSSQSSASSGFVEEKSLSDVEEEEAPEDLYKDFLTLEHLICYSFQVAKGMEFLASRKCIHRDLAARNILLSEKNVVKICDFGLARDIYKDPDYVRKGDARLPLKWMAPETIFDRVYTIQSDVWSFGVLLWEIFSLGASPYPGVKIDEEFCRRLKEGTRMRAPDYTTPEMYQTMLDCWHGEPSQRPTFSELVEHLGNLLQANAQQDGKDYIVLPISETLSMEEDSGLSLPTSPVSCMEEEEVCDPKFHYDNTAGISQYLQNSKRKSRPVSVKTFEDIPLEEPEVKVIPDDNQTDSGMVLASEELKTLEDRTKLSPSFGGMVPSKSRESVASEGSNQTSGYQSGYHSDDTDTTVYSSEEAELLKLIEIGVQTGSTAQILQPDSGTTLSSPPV
Assay: Inhibition of KDR by HTRF assay

Row | Structure (SMILES) | IC50
10 | Cc1cccc(C)c1-n1c(=O)c2cnc(Nc3ccc(OCCCN(C)C)cc3)nc2n2c3ccccc3nc12 | 4200 nM
11 | Cc1ccc(-n2c(=O)c3cnc(Nc4ccc(N5CCN(C)CC5)cc4)nc3n3c4ccccc4nc23)cc1 | > 25000 nM
12 | COc1cc(Nc2ncc3c(=O)n(-c4c(C)cccc4C)c4nc5ccccc5n4c3n2)ccc1N1CCN(C)CC1 | 3600 nM

Further lines, results first:

Row | IC50 | Structure (SMILES)
13 | 1900 nM | COc1cc(Nc2ncc3c(=O)n(-c4c(C)cccc4C)c4nc5ccccc5n4c3n2)cc(OC)c1OC
14 | 5000 nM | COc1cc(Nc2ncc3c(=O)n(-c4c(C)cccc4C)c4nc5ccccc5n4c3n2)ccc1OCCCN1CCN(C)CC1

System: T-cell
Assay: Inhibition of anti-CD3/CD28-induced IL2 production in human T cells
Format: functional, cell-based

Row | Structure (SMILES) | IC50
15 | Cc1cccc(C)c1-n1c(=O)c2cnc(Nc3ccc(OCCCN(C)C)cc3)nc2n2c3ccccc3nc12 | 1100 nM
16 | COc1cc(Nc2ncc3c(=O)n(-c4c(C)cccc4C)c4nc5ccccc5n4c3n2)ccc1N1CCN(C)CC1 | 430 nM

Results, then the compound that gave them:

Row | IC50 | Structure (SMILES)
17 | 970 nM | COc1cc(Nc2ncc3c(=O)n(-c4c(C)cccc4C)c4nc5ccccc5n4c3n2)cc(OC)c1OC
18 | 1500 nM | COc1cc(Nc2ncc3c(=O)n(-c4c(C)cccc4C)c4nc5ccccc5n4c3n2)ccc1OCCCN1CCN(C)CC1

System: Lymphocyte
Assay: Inhibition of T cell activation in human peripheral blood lymphocytes by mixed lymphocyte reaction
Format: functional, cell-based

Row | Structure (SMILES) | IC50
19 | Cc1cccc(C)c1-n1c(=O)c2cnc(Nc3ccc(OCCCN(C)C)cc3)nc2n2c3ccccc3nc12 | 100 nM
20 | COc1cc(Nc2ncc3c(=O)n(-c4c(C)cccc4C)c4nc5ccccc5n4c3n2)ccc1N1CCN(C)CC1 | 51 nM

More lines, now with the values ahead:

Row | IC50 | Structure (SMILES)
21 | 470 nM | COc1cc(Nc2ncc3c(=O)n(-c4c(C)cccc4C)c4nc5ccccc5n4c3n2)cc(OC)c1OC
22 | 140 nM | COc1cc(Nc2ncc3c(=O)n(-c4c(C)cccc4C)c4nc5ccccc5n4c3n2)ccc1OCCCN1CCN(C)CC1

System: not listed separately
Assay: Solubility in simulated intestinal fluid at pH 6.8
Format: physicochemical

Row | Structure (SMILES) | solubility
23 | Cc1cccc(C)c1-n1c(=O)c2cnc(Nc3ccc(OCCCN(C)C)cc3)nc2n2c3ccccc3nc12 | 155 µg/mL (≈ 290 µM)
24 | COc1cc(Nc2ncc3c(=O)n(-c4c(C)cccc4C)c4nc5ccccc5n4c3n2)ccc1N1CCN(C)CC1 | > 200 µg/mL

Next, values leading:

Row | solubility | Structure (SMILES)
25 | 15 µg/mL (≈ 28.7 µM) | COc1cc(Nc2ncc3c(=O)n(-c4c(C)cccc4C)c4nc5ccccc5n4c3n2)cc(OC)c1OC
26 | > 200 µg/mL | COc1cc(Nc2ncc3c(=O)n(-c4c(C)cccc4C)c4nc5ccccc5n4c3n2)ccc1OCCCN1CCN(C)CC1

Biological target: Tyrosine-protein kinase Lck (Homo sapiens, UniProt P06239)
Sequence (P06239 whole entry): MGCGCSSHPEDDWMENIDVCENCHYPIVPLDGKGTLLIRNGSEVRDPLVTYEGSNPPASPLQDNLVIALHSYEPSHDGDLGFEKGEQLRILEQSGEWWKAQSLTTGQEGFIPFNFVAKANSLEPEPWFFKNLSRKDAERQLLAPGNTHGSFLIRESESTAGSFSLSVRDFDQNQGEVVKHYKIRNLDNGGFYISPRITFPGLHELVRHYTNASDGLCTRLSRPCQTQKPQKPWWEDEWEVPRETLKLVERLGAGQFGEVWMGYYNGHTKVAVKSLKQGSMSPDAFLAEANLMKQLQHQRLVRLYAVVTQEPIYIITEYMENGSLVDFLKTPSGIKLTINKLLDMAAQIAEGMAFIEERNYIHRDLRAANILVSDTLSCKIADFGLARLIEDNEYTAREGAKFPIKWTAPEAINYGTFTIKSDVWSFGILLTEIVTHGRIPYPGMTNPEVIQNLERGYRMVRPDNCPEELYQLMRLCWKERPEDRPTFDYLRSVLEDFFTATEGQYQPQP
Description: Inhibition of Lck by HTRF assay

Row | Structure (SMILES) | IC50
27 | Cc1ccc(-n2c(=O)c3cnc(Nc4ccc(N5CCN(C)CC5)cc4)nc3n3c4ccccc4nc23)cc1 | 350 nM
28 | COc1cc(Nc2ncc3c(=O)n(-c4c(C)cccc4C)c4nc5ccccc5n4c3n2)ccc1N1CCN(C)CC1 | 5 nM

Results, then the compound that gave them:

Row | IC50 | Structure (SMILES)
29 | 27 nM | COc1cc(Nc2ncc3c(=O)n(-c4c(C)cccc4C)c4nc5ccccc5n4c3n2)cc(OC)c1OC
30 | 12 nM | COc1cc(Nc2ncc3c(=O)n(-c4c(C)cccc4C)c4nc5ccccc5n4c3n2)ccc1OCCCN1CCN(C)CC1
